Test results taken from USRE47689E1, “Compounds for treating spinal muscular atrophy” (PTC Therapeutics, Inc., priority 2011, dated 2019).

Assays:
Smn protein = Smn protein assay in cultured cells (SMN HTRF); format: cell-based, human; settings: 48 hours; for maximum fold (Fold) increase of Smn protein: SMA patient fibroblast cells, 7-point concentration data, fold increase relative to vehicle control (SMN HTRF); for EC1.5x (concentration giving 1.5-fold Smn protein increase): SMA Type 1 patient fibroblast cells (GM03813), 7-point concentration curve, SMN HTRF, concentration producing 1.5 times Smn protein vs DMSO vehicle control, read-out: EC1.5x for Smn protein expression
How it was run: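 Lysates in RIPA with protease inhibitors are incubated overnight at room temperature with HTRF anti-SMN antibodies. EC1.5x is derived from fold increase in ΔF over vehicle.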

[1] = system: SMN2 minigene (full length SMN2 minigene mRNA containing SMN2 exon 7); experiment: SMN2 minigene mRNA splicing RT-qPCR assay in cultured cells; format: cell-based, human; settings: Homo sapiens, HEK293-H; HEK293H cells stably transfected with SMN2-A minigene; 24 hours; 7-point concentration curve; 1.5-fold relative to vehicle-treated cells; read-out: EC1.5x for production of full length SMN2 mRNA
How it was run: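 HEK293H cells stably carrying the SMN2-A minigene treated 24 h at 37° C with compound (DMSO, 200× stock), then lysed. Multiplex RT-qPCR (SMN primers 0.4 μM final; 40 cycles) measures full-length exon 7-containing minigene mRNA, normalized to GAPDH and to vehicle; EC1.5x derived and binned by stars.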

| Compound | melting point | maximum fold (Fold) increase of Smn protein (Smn protein) | EC (1.5-fold) [1] | EC1.5x (concentration giving 1.5-fold Smn protein increase) (Smn protein) |
| --- | --- | --- | --- | --- |
| Cc1cn2cc(-c3cc4ccc(N5CCN(CCCO)[C@@H](C)C5)cc4oc3=O)nc2c(C)n1 [Compound 907, 3-(6,8-dimethylimidazo[1,2-a]pyrazin-2-yl)-7-[(3S)-4-(3-hydroxypropyl)-3-methylpiperazin-1-yl]-2H-chromen-2-one] | 187 to 190 °C | **** (fold increase between >1.5 and ≤1.65) | < 0.1 µM | < 300 nM |
| Cc1cn2cc(-c3cc4ccc(N5C[C@H](O)[C@@H](N(C)C)C5)cc4oc3=O)nc2c(C)n1 [Compound 738, 7-[(3S,4S)-3-(dimethylamino)-4-hydroxypyrrolidin-1-yl]-3-(6,8-dimethylimidazo[1,2-a]pyrazin-2-yl)-2H-chromen-2-one] | 270 to 272 °C | ***** (fold increase >1.65) | < 0.1 µM | < 300 nM |
| CN1CCN(c2ccc3cc(-c4cn5cc(F)cnc5n4)c(=O)oc3c2)CC1 [Cpd 480, 3-(6-fluoroimidazo[1,2-a]pyrimidin-2-yl)-7-(4-methylpiperazin-1-yl)-2H-chromen-2-one] | 275 to 280 °C | * (maximum fold increase of ≤1.2) | 3 to 30 µM |  |
| O=c1oc2cc(N3CCN4CCCCC4C3)ccc2cc1-c1cn2cccc(F)c2n1 (stereo not drawn) [Compound 578, 3-(8-fluoroimidazo[1,2-a]pyridin-2-yl)-7-(octahydro-2H-pyrido[1,2-a]pyrazin-2-yl)-2H-chromen-2-one] | 230 to 233 °C | * (maximum fold increase of ≤1.2) | 1 to 3 µM |  |
| Cc1ccn2nc(-c3cc4ccc(N5CCCNCC5)cc4oc3=O)cc2c1 [Compound 309, 7-(1,4-diazepan-1-yl)-3-(5-methylpyrazolo[1,5-a]pyridin-2-yl)-2H-chromen-2-one] | 203 to 206 °C | ** (fold increase between >1.2 and ≤1.35) | 0.3 to 1 µM |  |
| Cc1cn2cc(-c3cc4ccc(CCN5CCC[C@@H]5CO)cc4oc3=O)nc2c(C)n1 [Compound 874, 3-(6,8-dimethylimidazo[1,2-a]pyrazin-2-yl)-7-{2-[(2R)-2-(hydroxymethyl)pyrrolidin-1-yl]ethyl}-2H-chromen-2-one] | 166 to 171 °C | ***** (fold increase >1.65) | < 0.1 µM | < 300 nM |
| CC(C)NCc1ccc2cc(-c3nc4c(C(F)(F)F)cccc4s3)c(=O)oc2c1 [Compound 9, 7-[(propan-2-ylamino)methyl]-3-[4-(trifluoromethyl)-1,3-benzothiazol-2-yl]-2H-chromen-2-one] | 191 to 196 °C | * (maximum fold increase of ≤1.2) | 3 to 30 µM |  |
| Cc1cn2cc(-c3cc4ccc(N5CCN(CCCF)[C@@H](C)C5)cc4oc3=O)nc2c(C)n1 [Compound 900, 3-(6,8-dimethylimidazo[1,2-a]pyrazin-2-yl)-7-[(3S)-4-(3-fluoropropyl)-3-methylpiperazin-1-yl]-2H-chromen-2-one] | 215 to 217 °C | ***** (fold increase >1.65) | < 0.1 µM | < 300 nM |
| Cc1cc(F)c2nc(-c3cc4ccc(N5CCN6CCCCC6C5)cc4oc3=O)cn2c1 (stereo not drawn) [Compound 612, 3-(8-fluoro-6-methylimidazo[1,2-a]pyridin-2-yl)-7-(octahydro-2H-pyrido[1,2-a]pyrazin-2-yl)-2H-chromen-2-one] | 268 to 275 °C | ** (fold increase between >1.2 and ≤1.35) | 0.3 to 1 µM |  |

The next lines start with results.

| melting point | Compound | maximum fold (Fold) increase of Smn protein (Smn protein) | EC (1.5-fold) [1] | EC1.5x (concentration giving 1.5-fold Smn protein increase) (Smn protein) |
| --- | --- | --- | --- | --- |
| 115 to 117 °C | COc1ccc(-c2cc3c(F)cc(N4CCN[C@H](C)C4)cc3oc2=O)cc1OC [Compound 416, 3-(3,4-dimethoxyphenyl)-5-fluoro-7-[(3R)-3-methylpiperazin-1-yl]-2H-chromen-2-one] | ** (fold increase between >1.2 and ≤1.35) | 1 to 3 µM |  |
| 283 to 284 °C | Cc1cn2cc(-c3cc4c(F)cc(N5CCN(C)CC5)cc4oc3=O)nc2cn1 [Compound 592, 5-fluoro-3-(6-methylimidazo[1,2-a]pyrazin-2-yl)-7-(4-methylpiperazin-1-yl)-2H-chromen-2-one] | ***** (fold increase >1.65) | < 0.1 µM | < 300 nM |
| 170 to 173 °C | O=c1oc2cc(N3CCCNCC3)ccc2cc1-c1cn2cccc(Cl)c2n1 [Compound 212, 3-(8-chloroimidazo[1,2-a]pyridin-2-yl)-7-(1,4-diazepan-1-yl)-2H-chromen-2-one] | **** (fold increase between >1.5 and ≤1.65) | 0.3 to 1 µM | 300 to 1000 nM |
| 243 to 245 °C | O=c1oc2cc(N3CCNCC3)ccc2cc1-c1cc2ccccc2s1 [Compound 407, 3-(1-benzothiophen-2-yl)-7-(piperazin-1-yl)-2H-chromen-2-one] | * (maximum fold increase of ≤1.2) | 0.3 to 1 µM |  |
| 285 to 291 °C | Cc1cn2cc(-c3cc4ccc(CNC(C)C)cc4oc3=O)nc2c(C)n1 [Compound 850, 3-(6,8-dimethylimidazo[1,2-a]pyrazin-2-yl)-7-[(propan-2-ylamino)methyl]-2H-chromen-2-one] | ** (fold increase between >1.2 and ≤1.35) | 0.3 to 1 µM |  |
| 211 to 219 °C | Cc1cn2cc(-c3cc4ccc(N[C@@H]5CCN(CCO)C5)cc4oc3=O)nc2c(C)n1 [Compound 732, 3-(6,8-dimethylimidazo[1,2-a]pyrazin-2-yl)-7-{[(3R)-1-(2-hydroxyethyl)pyrrolidin-3-yl]amino}-2H-chromen-2-one] | *** (fold increase between >1.35 and ≤1.5) | < 0.1 µM | < 300 nM |
| 173 to 176 °C | Cc1cn2cc(-c3cc4ccc(N5C[C@@H](O)[C@H](N(C)C)C5)cc4oc3=O)cc2c(C)n1 [Compound 734, 7-[(3R,4R)-3-(dimethylamino)-4-hydroxypyrrolidin-1-yl]-3-(1,3-dimethylpyrrolo[1,2-a]pyrazin-7-yl)-2H-chromen-2-one] | **** (fold increase between >1.5 and ≤1.65) | < 0.1 µM | < 300 nM |
| 259 to 269 °C | Cc1cn2cc(-c3cc4ccc(N5C[C@H]6CCCN[C@H]6C5)cc4oc3=O)nc2c(C)n1 [Compound 655, 3-(6,8-dimethylimidazo[1,2-a]pyrazin-2-yl)-7-[(4aR,7aR)-octahydro-6H-pyrrolo[3,4-b]pyridin-6-yl]-2H-chromen-2-one] | **** (fold increase between >1.5 and ≤1.65) | < 0.1 µM | < 300 nM |
| 232 to 238 °C | CN1CCN(c2ccc3cc(-c4cn5cc(F)cc(F)c5n4)c(=O)oc3c2)CC1 [Compound 522, 3-(6,8-difluoroimidazo[1,2-a]pyridin-2-yl)-7-(4-methylpiperazin-1-yl)-2H-chromen-2-one] | * (maximum fold increase of ≤1.2) | 0.3 to 1 µM |  |
